Experimental data as given in patent US7935366B2 (priority 2006, dated 2011).
Where two headings read alike, the source gives them in different places.

How the values were obtained:
[1] = some subjects; cited from earlier work
[2] = Whole body retention of ^137Cs, CKF vs Prussian Blue; format: in vivo
DNA damage = details: FIG. 3
[3] = system: rat bone marrow erythrocytes; format: in vivo; details: FIG. 2
Source text: […]. The geno-toxicity assessment of [CaK2Fe(CN)6] and Prussian Blue for the formation of micronuclei (i.e. part of parent nucleus, which is left behind in the cytoplasm as a daughter nuclei, due to damage to chromosomes during cell division).

[4] = Percent binding capacity of *Cs at different pH; format: physicochemical
[5] = experimental animals
[6] = format: in vivo; details: stable iodine equivalent to 100 mg/70 Kg adult per day administered orally, 2 h post i.p. ^131I
[7] = format: in vivo; details: stable iodine equivalent to 100 mg/70 Kg adult per day mixed with diet, 2 h post i.p. ^131I
[8] = format: in vivo; details: rats; 24 h post oral ^131I; stable iodide equivalent to 100 mg/70 Kg adult given orally 2 h post ^131I
[9] = format: in vivo; details: 24 h post ip. ^131I; stable iodine given 2 h post ^131I

[C-]#N.[C-]#N.[C-]#N.[C-]#N.[C-]#N.[C-]#N.[C-]#N.[C-]#N.[C-]#N.[C-]#N.[C-]#N.[C-]#N.[C-]#N.[C-]#N.[C-]#N.[C-]#N.[C-]#N.[C-]#N.[Fe+2].[Fe+2].[Fe+2].[Fe+3].[Fe+3].[Fe+3].[Fe+3] [PB, ferric hexa-cyanoferrate (II)]
constipation [1]: induce constipation in some subjects | WHOLE BODY RETENTION - ^137Cs ([2]; day 0): 100 percent administered dose | WHOLE BODY RETENTION - ^137Cs ([2]; day 1): 61 ± 10 percent administered dose | WHOLE BODY RETENTION - ^137Cs ([2]; day 4): 31 ± 4 percent administered dose | WHOLE BODY RETENTION - ^137Cs ([2]; day 8): 21 ± 3 percent administered dose | WHOLE BODY RETENTION - ^137Cs ([2]; day 12): 15 ± 2 percent administered dose | WHOLE BODY RETENTION - ^137Cs ([2]; day 16): 11 ± 2 percent administered dose | WHOLE BODY RETENTION - ^137Cs ([2]; day 20): 7 ± 1 percent administered dose | WHOLE BODY RETENTION - ^137Cs ([2]; day 24): 6 ± 1 percent administered dose | WHOLE BODY RETENTION - ^137Cs ([2]; day 28): 5 ± 1 percent administered dose | speed of removing *Cs from in vivo system ([2]; experimental animals): slow | DNA damage in alkaline comet assay (DNA damage): do not induce any apparent DNA damage | micronuclei formation, means±SE versus control ([3]; all the tested doses): not significantly different from control | geno-toxicity, micronuclei formation ([3]; dose of 5 mg/100 g BW (equivalent to 3.5 g/d/70 Kg adult)): did not induce any toxicity | geno-toxicity, micronuclei formation ([3]; five and ten times the dose of 5 mg/100 g BW): marginal increase in the formation of micronuclei | binding with *Cs ([4]; FIG. 4, neutral pH): weaker binding | PERCENT BINDING CAPACITY of *Cs ([4]; pH 2): 27 ± 2% | PERCENT BINDING CAPACITY of *Cs ([4]; pH 3): 58 ± 0.7% | PERCENT BINDING CAPACITY of *Cs ([4]; pH 4): 75 ± 0.4% | PERCENT BINDING CAPACITY of *Cs ([4]; pH 5): 75 ± 0.3% | PERCENT BINDING CAPACITY of *Cs ([4]; pH 6): 67 ± 0.6% | PERCENT BINDING CAPACITY of *Cs ([4]; pH 7): 59 ± 0.9% | gastro-intestinal and cardio-toxicity (histo-pathologic changes) [5]: induces gastro-intestinal and cardio-toxicity

[K+].[O-][I+2]([O-])[O-] [KIO3]
WHOLE BODY RETENTION OF RADIO-IODINE ([6]; day 1): 28 ± 4 | WHOLE BODY RETENTION OF RADIO-IODINE ([6]; day 2): 12 ± 2 | WHOLE BODY RETENTION OF RADIO-IODINE ([6]; day 3): 10 ± 3 | WHOLE BODY RETENTION OF RADIO-IODINE ([6]; day 4): 8 ± 1 | WHOLE BODY RETENTION OF RADIO-IODINE ([6]; day 5): 7 ± 2 | WHOLE BODY RETENTION OF RADIO-IODINE ([6]; day 6): 7 ± 4 | WHOLE BODY RETENTION OF RADIO-IODINE ([6]; day 7): 8 ± 2 | WHOLE BODY RETENTION OF RADIO-IODINE ([6]; day 9): 6 ± 2 | WHOLE BODY RETENTION OF RADIO-IODINE ([7]; day 1): 28 ± 3 | WHOLE BODY RETENTION OF RADIO-IODINE ([7]; day 2): 12 ± 2 | WHOLE BODY RETENTION OF RADIO-IODINE ([7]; day 3): 10 ± 4 | WHOLE BODY RETENTION OF RADIO-IODINE ([7]; day 4): 8 ± 2 | WHOLE BODY RETENTION OF RADIO-IODINE ([7]; day 5): 7 ± 3 | WHOLE BODY RETENTION OF RADIO-IODINE ([7]; day 6): 7 ± 1 | WHOLE BODY RETENTION OF RADIO-IODINE ([7]; day 7): 8 ± 2 | WHOLE BODY RETENTION OF RADIO-IODINE ([7]; day 9): 6 ± 3 | WHOLE BODY RETENTION OF RADIO-IODINE ([7]; day 10): 3 ± 4 | WHOLE BODY RETENTION OF RADIO-IODINE ([7]; day 11): 2 ± 1 | WHOLE BODY RETENTION OF RADIO-IODINE ([7]; day 13): 2 ± 2 | WHOLE BODY RETENTION OF RADIO-IODINE ([7]; day 14): 1 ± 1 | Percent ^131I WBR [8]: 14 ± 3 percent administered dose | Percent ^131I in BLOOD [8]: 0.6 ± 0.05 percent administered dose | Percent ^131I in CARCAS [8]: 8 ± 0.5 percent administered dose | Percent ^131I in EXCRETA [8]: 81 ± 1 percent administered dose | Percent ^131I in LIVER + GUT [8]: 7 ± 0.5 percent administered dose | Percent ^131I in THYROID [8]: 4 ± 0.5 percent administered dose | Percent ^131I WBR [9]: 40 ± 2% | Percent ^131I in BLOOD [9]: 1.6 ± 0.4% | Percent ^131I in CARCAS [9]: 17 ± 2% | Percent ^131I in EXCRETA [9]: 64 ± 5% | Percent ^131I in LIVER + GUT [9]: 16 ± 1% | Percent ^131I in THYROID [9]: 10 ± 1%
